Key:
Type in all cases: functional
[1] = system: Galinsoga quadriradiata; assay: Post-emergence herbicidal activity against four-leafstage of Galinsoga quadriradiata assessed as efficacy of weed growth control at 750 g ai/ha under greenhouse conditions
[2] = system: Amaranthus viridis; assay: Post-emergence herbicidal activity against three-leaf stage Amaranthus viridis assessed as efficacy of weed growth control at 40 g ai/ha under greenhouse conditions
[3] = system: Avena fatua; assay: Post emergence herbicidal activity against three-leaf stage Avena fatua assessed as efficacy of weed growth control at 750 g ai/ha under greenhouse conditions
[4] = system: Chenopodium album; assay: Post-emergence herbicidal activity against two-leaf stage Chenopodium album assessed as efficacy of weed growth control at 80 g ai/ha under greenhouse conditions
[5] = system: Cynodon dactylon; assay: Post-emergence herbicidal activity against 15 cm leaf stage Cynodon dactylon assessed as efficacy of weed growth control at 60 g ai/ha under greenhouse conditions
[6] = system: Zea mays; assay: Post emergence phyototoxic activity against Zea mays (maize) plants assessed as inhibition of plant growth at 125 g ai/ha measured 22 to 37 days after compound application under greenhouse conditions; details: read-out: GI
[7] = system: Persicaria lapathifolia; assay: Post-emergence herbicidal activity against three-leaf stage Persicaria lapathifolia assessed as efficacy of weed growth control at 750 g ai/ha under greenhouse conditions
[8] = system: Commelina communis; assay: Post emergence herbicidal activity against two-leaf stage Commelina communis (Asiatic dayflower) assessed as efficacy of weed growth control at 80 g ai/ha under greenhouse conditions
[9] = system: Capsella bursa-pastoris; assay: Post-emergence herbicidal activity against four-leafstage Capsella bursa-pastoris assessed as efficacy of weed growth control at 750 g ai/ha under greenhouse conditions
[10] = system: Echinochloa crus-galli; assay: Post-emergence herbicidal activity against three-leaf stage Echinochloa crus-galli (barnyard grass) assessed as efficacy of weed growth control at 80 g ai/ha under greenhouse conditions
[11] = system: Senna tora; assay: Post-emergence herbicidal activity against one-leaf stage Senna tora assessed as efficacy of weed growth control at 40 g ai/ha under greenhouse conditions
[12] = system: Chenopodium album; assay: Post-emergence herbicidal activity against two-leaf stage Chenopodium album assessed as efficacy of weed growth control at 750 g ai/ha under greenhouse conditions
[13] = system: Setaria viridis; assay: Post-emergence herbicidal activity against two-leaf stage Setaria viridis (green foxtail) assessed as efficacy of weed growth control at 80 g ai/ha under greenhouse conditions
[14] = system: Stellaria media; assay: Post-emergence herbicidal activity against eight-leaf stage Stellaria media assessed as efficacy of weed growth control at 60 g ai/ha under greenhouse conditions
[15] = system: Eleusine indica; assay: Post emergence herbicidal activity against three-leaf stage Eleusine indica assessed as efficacy of weed growth control at 40 g ai/ha under greenhouse conditions
[16] = system: Portulaca oleracea; assay: Post-emergence herbicidal activity against three-leaf stage Portulaca oleracea assessed as efficacy of weed growth control at 40 g ai/ha under greenhouse conditions
[17] = system: Elymus repens; assay: Post-emergence herbicidal activity against three to four-leaf stage Elymus repens (couch grass) assessed as efficacy of weed growth control at 60 g ai/ha under greenhouse conditions
[18] = system: Sida spinosa; assay: Post-emergence herbicidal activity against two-leaf stage Sida spinosa assessed as efficacy of weed growth control at 80 g ai/ha under greenhouse conditions
[19] = system: Solanum nigrum; assay: Post emergence herbicidal activity against four-leaf stage Solanum nigrum (black nightshade) assessed as efficacy of weed growth control at 60 g ai/ha under greenhouse conditions
[20] = system: Abutilon theophrasti; assay: Post-emergence herbicidal activity against one-leaf stage Abutilon theophrasti (velvetleaf) assessed as efficacy of weed growth control at 60 g ai/ha under greenhouse conditions
[21] = system: Sida spinosa; assay: Post-emergence herbicidal activity against two-leaf stage Sida spinosa assessed as efficacy of weed growth control at 40 g ai/ha under greenhouse conditions
[22] = system: Chenopodium album; assay: Post emergence herbicidal activity against two-leaf stage Chenopodium album assessed as efficacy of weed growth control at 40 g ai/ha under greenhouse conditions
[23] = system: Galinsoga quadriradiata; assay: Post-emergence herbicidal activity against four-leafstage of Galinsoga quadriradiata assessed as efficacy of weed growth control at 40 g ai/ha under greenhouse conditions
[24] = system: Avena fatua; assay: Post emergence herbicidal activity against three-leaf stage Avena fatua assessed as efficacy of weed growth control at 40 g ai/ha under greenhouse conditions
[25] = system: Capsella bursa-pastoris; assay: Post-emergence herbicidal activity against four-leafstage Capsella bursa-pastoris assessed as efficacy of weed growth control at 60 g ai/ha under greenhouse conditions
[26] = system: Avena fatua; assay: Post emergence herbicidal activity against three-leaf stage Avena fatua assessed as efficacy of weed growth control at 60 g ai/ha under greenhouse conditions
[27] = system: Solanum nigrum; assay: Post emergence herbicidal activity against four-leaf stage Solanum nigrum (black nightshade) assessed as efficacy of weed growth control at 40 g ai/ha under greenhouse conditions
[28] = system: Digitaria sanguinalis; assay: Post-emergence herbicidal activity against two-leaf stage Digitaria sanguinalis (hairy crabgrass) assessed as efficacy of weed growth control at 750 g ai/ha under greenhouse conditions
[29] = system: Digitaria sanguinalis; assay: Post-emergence herbicidal activity against two-leaf stage Digitaria sanguinalis (hairy crabgrass) assessed as efficacy of weed growth control at 80 g ai/ha under greenhouse conditions
[30] = system: Capsella bursa-pastoris; assay: Post-emergence herbicidal activity against four-leafstage Capsella bursa-pastoris assessed as efficacy of weed growth control at 40 g ai/ha under greenhouse conditions
[31] = system: Persicaria lapathifolia; assay: Post-emergence herbicidal activity against three-leaf stage Persicaria lapathifolia assessed as efficacy of weed growth control at 60 g ai/ha under greenhouse conditions
[32] = system: Setaria viridis; assay: Post-emergence herbicidal activity against two-leaf stage Setaria viridis (green foxtail) assessed as efficacy of weed growth control at 750 g ai/ha under greenhouse conditions
[33] = system: Stellaria media; assay: Post-emergence herbicidal activity against eight-leaf stage Stellaria media assessed as efficacy of weed growth control at 80 g ai/ha under greenhouse conditions
[34] = system: Persicaria lapathifolia; assay: Post-emergence herbicidal activity against three-leaf stage Persicaria lapathifolia assessed as efficacy of weed growth control at 40 g ai/ha under greenhouse conditions
[35] = system: Portulaca oleracea; assay: Post-emergence herbicidal activity against three-leaf stage Portulaca oleracea assessed as efficacy of weed growth control at 60 g ai/ha under greenhouse conditions
[36] = system: Stellaria media; assay: Post-emergence herbicidal activity against eight-leaf stage Stellaria media assessed as efficacy of weed growth control at 750 g ai/ha under greenhouse conditions
[37] = system: Cyperus rotundus; assay: Post-emergence herbicidal activity against four to five-leaf stage Cyperus rotundus assessed as efficacy of weed growth control at 750 g ai/ha under greenhouse conditions
[38] = system: Eleusine indica; assay: Post-emergence herbicidal activity against three-leaf stage Eleusine indica assessed as efficacy of weed growth control at 80 g ai/ha under greenhouse conditions
[39] = system: Cyperus rotundus; assay: Post-emergence herbicidal activity against four to five-leaf stage Cyperus rotundus assessed as efficacy of weed growth control at 40 g ai/ha under greenhouse conditions
[40] = system: Senna tora; assay: Post-emergence herbicidal activity against one-leaf stage Senna tora assessed as efficacy of weed growth control at 60 g ai/ha under greenhouse conditions
[41] = system: Elymus repens; assay: Post-emergence herbicidal activity against three to four-leaf stage Elymus repens (couch grass) assessed as efficacy of weed growth control at 750 g ai/ha under greenhouse conditions
[42] = system: Cynodon dactylon; assay: Post-emergence herbicidal activity against 15 cm leaf stage Cynodon dactylon assessed as efficacy of weed growth control at 40 g ai/ha under greenhouse conditions

Question: `COc1cc(OC)nc(NC(=O)NS(=O)(=O)c2ncccc2C(=O)N(C)C)n1` [NICOSULFURON] was tested. Which Efficacy [1] did it give?
Answer: Its Efficacy is 95%.

Question: And the Efficacy [2]?
Answer: The Efficacy was 95%.

Question: What about the Efficacy [3] of the same compound?
Answer: The Efficacy was less than 50%.

Question: And the Efficacy [4]?
Answer: Its Efficacy is 95%.

Question: And the Efficacy [5]?
Answer: The Efficacy was less than 50%.

Question: And the inhibition of growth at 125 g/ha [6]?
Answer: Its inhibition of growth at 125 g/ha is 0%.

Question: What about the Efficacy [7] of the same compound?
Answer: The Efficacy was 95%.

Question: And the Efficacy [8]?
Answer: The Efficacy was 95%.

Question: What about the Efficacy [9] of the same compound?
Answer: The Efficacy was 95%.

Question: And the Efficacy [10]?
Answer: The Efficacy was 95%.

Question: And the Efficacy [11]?
Answer: Its Efficacy is 50%.

Question: What about the Efficacy [12] of the same compound?
Answer: The Efficacy was 95%.

Question: What about the Efficacy [13] of the same compound?
Answer: Its Efficacy is 95%.

Question: And the Efficacy [14]?
Answer: Its Efficacy is 95%.

Question: What about the Efficacy [15] of the same compound?
Answer: The Efficacy was 95%.

Question: What about the Efficacy [16] of the same compound?
Answer: Its Efficacy is 70%.

Question: And the Efficacy [17]?
Answer: The Efficacy was 95%.

Question: And the Efficacy [18]?
Answer: The Efficacy was 70%.

Question: What about the Efficacy [19] of the same compound?
Answer: Its Efficacy is 50%.

Question: And the Efficacy [20]?
Answer: Its Efficacy is 50%.

Question: What about the Efficacy [21] of the same compound?
Answer: Its Efficacy is 50%.

Question: What about the Efficacy [22] of the same compound?
Answer: The Efficacy was 50%.

Question: And the Efficacy [23]?
Answer: Its Efficacy is 70%.

Question: And the Efficacy [24]?
Answer: The Efficacy was 95%.

Question: And the Efficacy [25]?
Answer: The Efficacy was 95%.

Question: What about the Efficacy [26] of the same compound?
Answer: The Efficacy was 95%.

Question: And the Efficacy [27]?
Answer: Its Efficacy is 50%.

Question: And the Efficacy [28]?
Answer: The Efficacy was less than 50%.

Question: And the Efficacy [29]?
Answer: Its Efficacy is 95%.

Question: And the Efficacy [30]?
Answer: Its Efficacy is 70%.

Question: What about the Efficacy [31] of the same compound?
Answer: The Efficacy was 95%.

Question: What about the Efficacy [32] of the same compound?
Answer: Its Efficacy is 70%.

Question: What about the Efficacy [33] of the same compound?
Answer: Its Efficacy is 95%.

Question: And the Efficacy [34]?
Answer: Its Efficacy is 70%.

Question: And the Efficacy [35]?
Answer: The Efficacy was 95%.

Question: What about the Efficacy [36] of the same compound?
Answer: The Efficacy was 95%.

Question: And the Efficacy [37]?
Answer: Its Efficacy is 50%.

Question: And the Efficacy [38]?
Answer: The Efficacy was 95%.

Question: And the Efficacy [39]?
Answer: Its Efficacy is less than 50%.

Question: What about the Efficacy [40] of the same compound?
Answer: Its Efficacy is 50%.

Question: What about the Efficacy [41] of the same compound?
Answer: The Efficacy was less than 50%.

Question: And the Efficacy [42]?
Answer: The Efficacy was less than 50%.

— ChEMBL document CHEMBL3046890, “Synthesis and Herbicidal Activity of Sulfonylureas; SL-950 and Its Related Compounds” (1995)
